Blank lines part the entries; values can stand above or below the molecule they belong to.
How the values were obtained:
[1] = biological target: T1, human VSIG3-ECD (Homo sapiens, UniProt Q5DX21); assay: microscale thermophoresis; format: binding; conditions: room temperature, 30 min; RED-NHS labelled protein
T1 construct: gene IGSF11; extracellular domain (IgV + IgC2), signal peptide (22 aa) removed, His-tagged; RED-NHS labelled for MST; dimer in crystal
T1 sequence (Q5DX21 23-241): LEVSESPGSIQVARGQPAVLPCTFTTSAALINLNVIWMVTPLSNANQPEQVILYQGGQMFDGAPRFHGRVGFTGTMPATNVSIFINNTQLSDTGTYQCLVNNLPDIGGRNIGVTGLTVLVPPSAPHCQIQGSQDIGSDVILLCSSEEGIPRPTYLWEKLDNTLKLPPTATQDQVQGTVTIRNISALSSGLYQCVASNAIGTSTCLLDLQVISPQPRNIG

[2] = biological target: the molecule itself; assay: crystal structure; hanging drop vapor diffusion, 4°C, 0.1 M sodium citrate tribasic dihydrate pH 5.6, 0.01 M iron(III) chloride, 10% Jeffamine M-600; VSIG3 at 3 mg/mL; 2.64 Å

Kd [1]: 11.6 ± 9.12 µM
Molecule: O=C(CCn1c(SCC(=O)NC2CCCC2)nc2ccccc2c1=O)NC1CCCCC1 [K284-3046]

B1: human VSIG3 extracellular domain (residues 23-241) expressed in E. coli, refolded (domain or fragment, UniProt Q5DX21 23-241, looked up)
chain: T1 sequence (Q5DX21 23-241)
notes: VSIG3 (IgSF11), human, UniProt Q5DX21, residues 23-241 (extracellular domain without the 22-residue signal peptide); No PDB id is printed; also called VSIG3-ECD; IgSF11; not shown: His tag (from the vector pET28a)
stoichiometry N [2]: 2

— publication PMC8027081, “Structural Basis of VSIG3: The Ligand for VISTA” (Frontiers in Immunology, 2021)
